Test results taken from paper PMC9043270, “β-Blockers bearing hydroxyethylamine and hydroxyethylene as potential SARS-CoV-2 Mpro inhibitors: rational based design, in silico, in vitro, and SAR studies for lead optimization” (RSC Advances, 2021).

Target: T1, SARS-CoV-2 Mpro (3CL protease) (Severe acute respiratory syndrome coronavirus 2, UniProt P0DTD1)
T1 construct: gene rep
Assay: fluorogenic substrate 3CL protease assay kit
Format: biochemical
Settings: read-out: IC50 (μg ml^-1) (converted)
Text: fluorogenic substrate 3CL protease assay kit on SARS-CoV-2 Mpro (3CL protease)

Row | Compound | IC50 [µM]
1 | Cc1cccc(C)c1OCC(=O)N[C@@H](Cc1ccccc1)[C@@H](O)C[C@H](Cc1ccccc1)NC(=O)[C@H](C(C)C)N1CCCNC1=O [Lopinavir] | 117
2 | CC(C)NCC(O)COc1ccc(COCCOC(C)C)cc1 (stereo not shown) [compound 8, Bisoprolol] | 364
3 | COc1ccccc1OCCNCC(O)COc1cccc2[nH]c3ccccc3c12 (stereo not shown) [compound 17, Carvedilol] | 503
4 | OC(CNCC(O)C1CCc2cc(F)ccc2O1)C1CCc2cc(F)ccc2O1 (stereo not shown) [compound 20, Nebivolol] | 148
